A word on the MIC: it is the lowest concentration that inhibits growth of the organism.

The values below come from patent US20090156577A1, “7-AMINO ALKYLIDENYL-HETEROCYCLIC QUINOLONES AND NAPHTHYRIDONES” (priority 2004, published 2009).

Converted amounts (≈) assume the structure as drawn. Structures can show the parent of a compound that is named as a salt. Where two headings read alike, the source gives them in different places.

The subject of the experiment is pathogenic bacteria. The experiment can be described thus: MIC by microdilution broth method (NCCLS M7-A4), in vitro antibacterial activity. The experiment is classed as cell-based. Summed up: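 Broth microdilution per NCCLS M7-A4: two-fold serial dilutions in cation-adjusted Mueller-Hinton broth, inoculum about 5×10^4 CFU/well. Trays incubated 16–20 h at 35 °C. MIC read by comparing growth against no-compound growth controls.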

Setting [1] is: Staphylococcus aureus, Organism A: Staphylococcus aureus OC4172, read-out: MIC.
[2] abbreviates: Streptococcus pneumoniae, ATCC49619, Organism E: Streptococcus pneumoniae ATCC 49619, read-out: MIC.
Setting [3] is: Streptococcus pneumoniae, Organism B: fluoroquinolone-resistant clinical isolate of Streptococcus pneumoniae (QRDR amino acid substitutions).
Where [4] appears, read: Streptococcus pneumoniae, Organism C: fluoroquinolone-resistant clinical isolate of Streptococcus pneumoniae (QRDR amino acid substitutions).
The mark [5] stands for this setting: Streptococcus pneumoniae, Organism D: fluoroquinolone-resistant clinical isolate of Streptococcus pneumoniae (QRDR amino acid substitutions).

For `NCC(Cl)=C1CN(c2c(F)cc3c(=O)c(C(=O)O)cn(-c4nc(N)c(F)cc4F)c3c2Cl)C1` [Compound 268, 7-[3-(2-Amino-1-chloro-ethylidene)-azetidin-1-yl]-1-(6-amino-3,5-difluoro-pyridin-2-yl)-8-chloro-6-fluoro-4-oxo-1,4-dihydro-quinoline-3-carboxylic Acid], the minimum inhibitory concentration (MIC) runs as follows: under setting [1], at most 0.015 µg/mL; under setting [2], 0.03 µg/mL (≈ 0.06 µM); under setting [3], 0.06 µg/mL (≈ 0.12 µM); under setting [4], 0.12 µg/mL (≈ 0.24 µM); under setting [5], 0.12 µg/mL (≈ 0.24 µM).
On to `NCC(F)=C1CN(c2c(F)cc3c(=O)c(C(=O)O)cn(-c4nc(N)c(F)cc4F)c3c2Cl)C1` [Compound 269, 1-(6-Amino-3,5-difluoro-pyridin-2-yl)-7-[3-(2-amino-1-fluoro-ethylidene)-azetidin-1-yl]-8-chloro-6-fluoro-4-oxo-1,4-dihydro-quinoline-3-carboxylic acid], for which the MIC runs as follows: under setting [1], at most 0.015 µg/mL; under setting [2], 0.03 µg/mL (≈ 0.062 µM); under setting [3], 0.25 µg/mL (≈ 0.517 µM); under setting [4], 0.06 µg/mL (≈ 0.124 µM).
As to `NCC(Cl)=C1CCN(c2c(F)cc3c(=O)c(C(=O)O)cn(-c4nc(N)c(F)cc4F)c3c2Cl)CC1` [Compound 270, 7-[4-(2-Amino-1-chloro-ethylidene)-piperidin-1-yl}-1-(6-amino-3,5-difluoropyridin-2-yl)-8-chloro-6-fluoro-4-oxo-1,4-dihydro-quinoline-3-carboxylic Acid], the MIC is, setting by setting: under setting [1], 0.06 µg/mL (≈ 0.114 µM); under setting [2], 0.5 µg/mL (≈ 0.946 µM); under setting [4], 4 µg/mL (≈ 7.57 µM); under setting [5], 2 µg/mL (≈ 3.79 µM).
In the case of `NCC(Cl)=C1CCN(c2nc3c(cc2F)c(=O)c(C(=O)O)cn3-c2ccc(F)cc2F)CC1` [Compound 271, 7-[4-(2-Amino-1-chloro-ethylidene)-piperidin-1-yl]-1-(2,4-difluoro-phenyl)-6-fluoro-4-oxo-1,4-dihydro-[1,8]naphthyridine-3-carboxylic acid], the MIC under setting [1] was at most 0.015 µg/mL; the MIC under setting [2] is 0.12 µg/mL (≈ 0.251 µM); the MIC under setting [3] turned out to be 1 µg/mL (≈ 2.09 µM); the minimum inhibitory concentration (MIC) under setting [4] was 1 µg/mL (≈ 2.09 µM); the MIC under setting [5] was 1 µg/mL (≈ 2.09 µM).
As for `NCC(F)=C1CN(c2cc3c(cc2F)c(=O)c(C(=O)O)cn3C2CC2)C1` [Compound 272, 7-[3-(2-amino-1-fluoro-ethylidene)-azetidin-1-yl]-1-cyclopropyl-6-fluoro-4-oxo-1,4-dihydro-quinoline-3-carboxylic acid], the minimal inhibitory concentration (MIC) is, setting by setting: under setting [1], at most 0.015 µg/mL; under setting [2], 0.5 µg/mL (≈ 1.38 µM); under setting [3], 4 µg/mL (≈ 11.1 µM); under setting [4], 0.5 µg/mL (≈ 1.38 µM).
`COc1c(N2CC(=C(F)CN)C2)c(F)cc2c(=O)c(C(=O)O)cn(C3CC3)c12` [Compound 273, 7-[3-(2-amino-1-fluoro-ethylidene)-azetidin-1-yl]-1-cyclopropyl-6-fluoro-8-methoxy-4-oxo-1,4-dihydro-quinoline-3-carboxylic acid]: the MIC worked out at 0.03 µg/mL (≈ 0.0767 µM) under setting [1], 4 µg/mL (≈ 10.2 µM) under setting [2], 4 µg/mL (≈ 10.2 µM) under setting [3] and 0.5 µg/mL (≈ 1.28 µM) under setting [4].
For `COc1c(N2CC(=C(F)CN)C2)ccc2c(=O)c(C(=O)O)cn(C3CC3)c12` [Compound 274, 7-[3-(2-amino-1-fluoro-ethylidene)-azetidin-1-yl]-1-cyclopropyl-8-methoxy-4-oxo-1,4-dihydro-quinoline-3-carboxylic acid], the MIC was determined as 0.06 µg/mL (≈ 0.161 µM) under setting [1], 1 µg/mL (≈ 2.68 µM) under setting [2], 4 µg/mL (≈ 10.7 µM) under setting [3] and 1 µg/mL (≈ 2.68 µM) under setting [4].
For the compound `COc1c(N2CCC(=C(Cl)CN)CC2)ccc2c(=O)c(C(=O)O)cn(C3CC3)c12` [Compound 275, 7-[4-(2-Amino-1-chloro-ethylidene)-piperidin-1-yl]-1-cyclopropyl-8-methoxy-4-oxo-1,4-dihydro-quinoline-3-carboxylic acid], the MIC under setting [1] stood at 0.03 µg/mL (≈ 0.0718 µM); the minimum inhibitory concentration (MIC) under setting [2] was found to be 0.12 µg/mL (≈ 0.287 µM); the MIC under setting [3] was 1 µg/mL (≈ 2.39 µM); the MIC under setting [4] was 1 µg/mL (≈ 2.39 µM); the MIC under setting [5] stood at 1 µg/mL (≈ 2.39 µM).
In the case of `C[C@H]1COc2c(N3CC(=C(F)CN)C3)c(F)cc3c(=O)c(C(=O)O)cn1c23` [Compound 276, 9-[3-(2-Amino-1-fluoro-ethylidene)-azetidin-1-yl]-8-fluoro-(3S)-3-methyl-6-oxo-2,3-dihydro-6H-1-oxa-3a-aza-phenalene-5-carboxylic acid], the MIC is, setting by setting: under setting [1], at most 0.015 µg/mL; under setting [2], 0.25 µg/mL (≈ 0.663 µM); under setting [3], 0.5 µg/mL (≈ 1.33 µM); under setting [4], 2 µg/mL (≈ 5.3 µM); under setting [5], 4 µg/mL (≈ 10.6 µM).
With `C[C@H]1COc2c(N3CCC(=C(Cl)CN)CC3)c(F)cc3c(=O)c(C(=O)O)cn1c23` [Compound 277, 9-[4-(2-Amino-1-chloro-ethylidene)-piperidin-1-yl]-8-fluoro-(3S)-3-methyl-6-oxo-2,3-dihydro-6H-1-oxa-3a-aza-phenalene-5-carboxylic acid], the MIC under setting [1] is at most 0.015 µg/mL; the MIC under setting [2] was found to be 0.03 µg/mL (≈ 0.0711 µM); the MIC under setting [3] is 0.25 µg/mL (≈ 0.593 µM); the MIC under setting [4] came to 0.25 µg/mL (≈ 0.593 µM); the MIC under setting [5] came to 0.5 µg/mL (≈ 1.19 µM).
As to `N#CC(CN)=C1CCN(c2nc3c(cc2F)c(=O)c(C(=O)O)cn3C2CC2)CC1` [Compound 283, 7-[4-(2-Amino-1-cyano-ethylidene)-piperidin-1-yl]-1-cyclopropyl-6-fluoro-4-oxo-1,4-dihydro-[1,8]naphthyridine-3-carboxylic Acid], the MIC under setting [1] was determined as 0.25 µg/mL (≈ 0.629 µM); the MIC under setting [2] came out at 0.5 µg/mL (≈ 1.26 µM); inhibition of growth under setting [3] (MIC) required 2 µg/mL (≈ 5.03 µM); the MIC under setting [4] is 4 µg/mL (≈ 10.1 µM); the MIC under setting [5] was 8 µg/mL (≈ 20.1 µM).
`N#CC(CN)=C1CCN(c2cc3c(cc2F)c(=O)c(C(=O)O)cn3C2CC2)CC1` [Compound 285, 7-[4-(2-Amino-1-cyano-ethylidene)-piperidin-1-yl]-1-cyclopropyl-6-fluoro-4-oxo-1,4-dihydro-quinoline-3-carboxylic Acid]: the minimum inhibitory concentration (MIC) under setting [1] is 0.25 µg/mL (≈ 0.631 µM), the MIC under setting [2] is 1 µg/mL (≈ 2.52 µM), the MIC under setting [4] is 8 µg/mL (≈ 20.2 µM) and the MIC under setting [5] is above 16 µg/mL.
The corresponding values for `NCC(C(=O)O)=C1CCN(c2nc3c(cc2F)c(=O)c(C(=O)O)cn3C2CC2)CC1` [Compound 286, 7-[4-(2-Amino-1-carboxy-ethylidene)-piperidin-1-yl]-1-cyclopropyl-6-fluoro-4-oxo-1,4-dihydro-[1,8]naphthyridine-3-carboxylic Acid] are 4 µg/mL (≈ 9.61 µM), 16 µg/mL (≈ 38.4 µM), above 16 µg/mL and above 16 µg/mL.
In the same order, the values of `NCCNCC(Cl)=C1CCN(c2nc3c(cc2F)c(=O)c(C(=O)O)cn3C2CC2)CC1.O=C(O)C(F)(F)F` [Compound 289, 7-{4-[2-(2-Amino-ethylamino)-1-chloro-ethylidene]-piperidin-1-yl}-1-cyclopropyl-6-fluoro-4-oxo-1,4-dihydro-[1,8]naphthyridine-3-carboxylic Acid Trifluoroacetic Acid Salt] are 0.5 µg/mL, 0.25 µg/mL, 1 µg/mL and 2 µg/mL.
In the same order, the values of `O=CN1CCN(CC(Cl)=C2CCN(c3nc4c(cc3F)c(=O)c(C(=O)O)cn4C3CC3)CC2)CC1` [Compound 291, 7-{4-[1-Chloro-2-(4-formyl)-piperazin-1-yl-ethylidene]-piperidin-1-yl}-1-cyclopropyl-6-fluoro-4-oxo-1,4-dihydro-[1,8]naphthyridine-3-carboxylic Acid Trifluoroacetic Acid Salt] are 2 µg/mL, 8 µg/mL, above 16 µg/mL and 8 µg/mL.
`O=C(O)c1cn(C2CC2)c2nc(N3CCC(=C(Cl)CN4CCNCC4)CC3)c(F)cc2c1=O` [Compound 292, 7-[4-(1-chloro-2-piperazin-1-yl-ethylidene)-piperidin-1-yl]-1-cyclopropyl-6-fluoro-4-oxo-1,4-dihydro-[1,8]naphthyridine-3-carboxylic Acid Trifluoroacetic Acid Salt]: the MIC reads like this: (Staphylococcus aureus, Organism A: Staphylococcus aureus OC4172) 1 µg/mL; (Streptococcus pneumoniae, ATCC49619, Organism E: Streptococcus pneumoniae ATCC 49619) 4 µg/mL; under setting [4], above 16 µg/mL; under setting [5], 16 µg/mL.
For `O=C(O)C(F)(F)F.O=C(O)c1cn(C2CC2)c2nc(N3CCC(=C(F)CN4CCNCC4)CC3)c(F)cc2c1=O` [Compound 294, 1-Cyclopropyl-6-fluoro-7-[4-(1-fluoro-2-piperazin-1-yl-ethylidene)-piperidin-1-yl]-4-oxo-1,4-dihydro-[1,8]naphthyridine-3-carboxylic Acid Trifluoroacetic Acid Salt], the MIC is, setting by setting: under setting [1], 2 µg/mL; under setting [2], 8 µg/mL; under setting [3], above 16 µg/mL; under setting [4], above 16 µg/mL; under setting [5], above 16 µg/mL.
Consider `C[C@H]1COc2c(N3CCC(=C(F)CN(C)C)CC3)c(F)cc3c(=O)c(C(=O)O)cn1c23` [Compound 295, 9-[4-(2-Dimethylamino-1-fluoro-ethylidene)-piperidin-1-yl]-8-fluoro-(3S)-3-methyl-6-oxo-2,3-dihydro-6H-1-oxa-3a-aza-phenalene-5-carboxylic Acid], for which the MIC worked out at 0.5 µg/mL (≈ 1.15 µM) under setting [1]; 2 µg/mL (≈ 4.61 µM) under setting [2]; 16 µg/mL (≈ 36.9 µM) under setting [3]; 16 µg/mL (≈ 36.9 µM) under setting [4]; 8 µg/mL (≈ 18.5 µM) under setting [5].
For `C/C(CN)=C1\CCCN(c2nc3c(cc2F)c(=O)c(C(=O)O)cn3C2CC2)C1.O=C(O)C(F)(F)F` [Compound 297, (Z)-7-[3-(1-Amino-2-propylidene)-piperidin-1-yl]-1-cyclopropyl-6-fluoro-4-oxo-1,4-dihydro-[1,8]naphthyridine-3-carboxylic Acid Trifluoroacetic Acid Salt], the MIC reads like this: under setting [1], 0.25 µg/mL; under setting [2], 1 µg/mL; under setting [3], 16 µg/mL; under setting [4], 16 µg/mL; under setting [5], 16 µg/mL.
